{"source": "patent US20240309004A1", "about": "“SELECTIVE CYCLIN-DEPENDENT KINASE INHIBITORS AND METHODS OF THERAPEUTIC USE THEREOF” (ViroKyne Therapeutics, LLC, priority 2021, published 2024)", "key": {"[1]": {"test_system": "Human papillomavirus 11 strain HE611260.1", "experiment": "Human papillomavirus 11 primary assay (replicon), C-33 A cells", "assay_type": "cell-based", "conditions": "strain HE611260.1, C-33 A cells", "source_text": "(§1) An HPV11 replicon assay was developed and expresses the essential E1 and E2 proteins from the native promoter. The E2 origin binding protein interacts with the virus origin of replication and recruits the E1 replicative helicase which unwinds the DNA and helps to recruit the cellular DNA replication machinery (including DNA polymerases, type I and type II topoisomerases, DNA ligase, single-stranded DNA binding proteins, proliferating cell nuclear antigen). The replication complex then drives the amplification of the replicon which can be assessed by the expression of a destabilized NanoLuc reporter gene carried on the replicon. In this assay, the replicon (pMP619) is transfected into C-33 A cells grown as monolayers in 384-well plates. At 48 h post transfection, the enzymatic activity of the destabilized NanoLuc reporter is assessed with NanoGlo reagent. […] . Beadle et al., 2016."}, "HCMV strain AD169": {"test_system": "HCMV strain AD169", "experiment": "HCMV primary assay (CPE), strain AD169, HFF cells", "assay_type": "cell-based, Human Cytomegalovirus", "conditions": "Human betaherpesvirus 5, HCMV primary assay, virus strain AD169, HFF cells", "protocol": "The antiviral activity of the compound against HCMV in the described Primary assay was measured by treating primary Human foreskin fibroblast (HFF) cells infected with HCMV with a range of compound concentrations—description of methods for this assay can be found in section 1.3.2.1. […] . Additional tested assay parameters in this Primary assay can be found in Table 3.2.1 and include EC90, S150, and S190 values—descriptions of those data points can be found in section 3.2.1."}, "[2]": {"experiment": "Cytotoxicity concurrent with HCMV AD169 primary assay", "assay_type": "cell-based, human", "conditions": "human, CC50"}, "[3]": {"experiment": "Metabolic stability in mice liver microsomes", "conditions": "mice liver microsomes, 1 μM compound, 1 mM NADPH, 60 min", "protocol": "Potassium phosphate buffer (Kphos) was prepared by adding 0.647 g potassium phosphate monobasic (KH2PO4) and 3.527 g potassium phosphate dibasic (K2HPO4) to 400 mL of Milli-Q water. pH of the buffer was adjusted to 7.4 and volume was made up to 500 mL.\nStock solutions of the test compounds were prepared in DMSO at a concentration of 1 mM.\nTo this microsomal mix 1.42 μL (1 mM) of test compound and positive control were spiked, from this mix 70 μL was transferred to 96 well plate and pre-incubated at 37° C. for 5 min. […] The plates were centrifuged at 4000 RPM for 15 min and 100 μL aliquots were submitted for analysis by LC-MS/MS.\nSamples were monitored for parent compound disappearance in MRM mode using LC-MS/MS. The LC-MS/MS conditions and MRM chromatogram will be provided as per client request.\nThe peak area ratios of analyte versus internal standard were used to calculate the % remaining at the end of 60 minutes in presence NADPH."}, "[4]": {"experiment": "Cytotoxicity concurrent with HHV-8 primary assay", "assay_type": "cell-based", "conditions": "human, BCBL-1 cells"}, "[5]": {"experiment": "Cytotoxicity concurrent with HPV11 primary assay", "assay_type": "cell-based", "conditions": "human, C-33 A cells", "source_text": "as §1"}, "[6]": {"test_system": "Human herpes virus 8 strain BCBL-1", "experiment": "Human herpes virus 8 primary assay, BCBL-1 cells", "assay_type": "cell-based, Human Herpesvirus 8", "conditions": "Human gammaherpesvirus 8, BCBL1, strain BCBL-1, BCBL-1 cells"}, "CDK9/cyclin T1": {"target": "CDK9/cyclin T1 (Homo sapiens (Human), UniProt P50750)", "sequence (P50750 whole entry)": "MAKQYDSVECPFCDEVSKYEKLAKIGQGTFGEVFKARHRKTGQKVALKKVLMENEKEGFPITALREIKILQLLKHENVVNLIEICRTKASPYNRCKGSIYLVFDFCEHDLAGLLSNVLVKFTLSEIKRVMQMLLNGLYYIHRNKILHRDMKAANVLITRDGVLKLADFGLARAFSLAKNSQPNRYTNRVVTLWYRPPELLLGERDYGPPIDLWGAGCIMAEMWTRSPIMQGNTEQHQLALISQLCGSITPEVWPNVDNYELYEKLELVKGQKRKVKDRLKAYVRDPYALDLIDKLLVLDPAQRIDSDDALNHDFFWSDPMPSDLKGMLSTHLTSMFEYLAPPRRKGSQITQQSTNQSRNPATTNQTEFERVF", "sequence (O60563 whole entry partner)": "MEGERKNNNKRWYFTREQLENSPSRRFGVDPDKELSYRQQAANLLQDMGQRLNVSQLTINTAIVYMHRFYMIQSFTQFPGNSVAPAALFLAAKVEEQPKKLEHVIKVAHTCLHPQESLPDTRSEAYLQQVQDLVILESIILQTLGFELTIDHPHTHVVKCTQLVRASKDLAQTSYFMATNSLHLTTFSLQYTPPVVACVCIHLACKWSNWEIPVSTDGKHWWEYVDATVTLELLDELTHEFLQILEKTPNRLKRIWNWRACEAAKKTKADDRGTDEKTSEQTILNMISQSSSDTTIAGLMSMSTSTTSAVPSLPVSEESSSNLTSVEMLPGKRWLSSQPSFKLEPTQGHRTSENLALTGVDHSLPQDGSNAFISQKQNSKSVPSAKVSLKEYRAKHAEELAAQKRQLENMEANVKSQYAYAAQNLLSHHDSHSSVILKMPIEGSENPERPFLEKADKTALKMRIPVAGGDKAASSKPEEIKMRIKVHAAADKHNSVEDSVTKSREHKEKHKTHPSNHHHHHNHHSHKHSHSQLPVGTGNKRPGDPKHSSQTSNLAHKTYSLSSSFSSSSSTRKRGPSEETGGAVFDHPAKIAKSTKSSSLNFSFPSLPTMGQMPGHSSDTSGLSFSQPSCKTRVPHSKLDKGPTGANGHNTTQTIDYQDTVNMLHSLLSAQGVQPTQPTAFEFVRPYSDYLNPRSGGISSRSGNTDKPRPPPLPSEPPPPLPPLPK", "experiment": "Kinase activity assay, CDK9/cyclin T1", "assay_type": "biochemical", "conditions": "Table 3.1.2; 10 μM ATP; 10-dose triplicate starting at 9.827 μM; unit not printed (table 3.1.1 prints M); read-out: CDK9/cyclin T1 kinase activity (IC50)"}, "[7]": {"experiment": "Cytotoxicity concurrent with HHV-6B primary assay", "assay_type": "cell-based", "conditions": "human, MOLT-3 cells"}, "[8]": {"test_system": "Human herpes virus 6B strain Z29", "experiment": "Human herpes virus 6B primary assay, strain Z29, MOLT-3 cells", "assay_type": "cell-based, Human Herpesvirus 6B", "conditions": "Human betaherpesvirus 6B"}}, "data": [{"smiles": "Fc1ccc2c(c1)nn1cnc(NC3CCOCC3)cc21", "note": "[VKT-320, 7-fluoro-N-(tetrahydro-2H-pyran-4-yl)pyrimido[1,6-b]indazol-3-amine]", "values": [{"measurement": "EC50", "setting": "[1]", "result": 7.99, "unit": "µM"}, {"measurement": "EC90", "setting": "[1]", "result": 19.8, "unit": "µM"}, {"measurement": "EC50", "setting": "HCMV strain AD169; read-out: EC50", "result": 10, "unit": "µM"}, {"measurement": "EC90", "setting": "HCMV strain AD169; read-out: EC90", "result": 10, "unit": "µM"}, {"measurement": "CC50", "setting": "[2]", "result": 38.5, "unit": "µM"}, {"measurement": "% Remaining at 60 min", "setting": "[3]", "result": 37, "unit": "%"}, {"measurement": "CC50", "setting": "[4]", "result": 50, "unit": "µM"}, {"measurement": "CC50", "setting": "[5]", "result": 50, "unit": "µM"}, {"measurement": "EC50", "setting": "[6]", "result": 22.1, "unit": "µM"}, {"measurement": "EC90", "setting": "[6]", "result": 44.2, "unit": "µM"}, {"measurement": "IC50", "setting": "CDK9/cyclin T1", "result": 1.68, "unit": "µM"}, {"measurement": "CC50 at 7 d", "setting": "[7]", "result": 50, "unit": "µM"}, {"measurement": "EC50", "setting": "[8]", "result": 8.96, "unit": "µM"}, {"measurement": "EC90", "setting": "[8]", "result": 32.6, "unit": "µM"}]}]}
